Assays:
Format in all cases: in vivo
[1] = system: foxtail, giant (giant foxtail, Setaria faberi); assay: Test A postemergence, foxtail, giant; settings: Setaria faberi, post-emergence, 240 h, Postemergence, 0 to 100 scale, 10 days, read-out: Plant response rating, Foxtail, Giant; for pest or weed control at 31 g/ha: 31 g ai/ha; for pest or weed control at 125 g/ha: 125 g ai/ha
Method in brief: (§1)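 Pre: soil-directed spray on seeded loam/sand pots. Post: spray on 2–10 cm seedlings, 1–2 leaves. Surfactant-containing solvent vehicle. Greenhouse 10 d; visual % control vs untreated.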

kochia (Bassia scoparia) = assay: Test A preemergence, kochia; settings: Bassia scoparia, pre-emergence, 240 h, 0 to 100 scale, 10 days, read-out: Plant response rating, Kochia; for pest or weed control at 31 g/ha: 31 g ai/ha; for pest or weed control at 125 g/ha: 125 g ai/ha
Method in brief: as §1

[2] = system: ragweed (common ragweed, Ambrosia artemisiifolia); assay: Test A preemergence, ragweed; settings: Ambrosia artemisiifolia, pre-emergence, 240 h, 0 to 100 scale, 10 days, read-out: Plant response rating, Ragweed; for pest or weed control at 31 g/ha: 31 g ai/ha; for pest or weed control at 125 g/ha: 125 g ai/ha
Method in brief: as §1

[3] = system: ducksalad (Heteranthera limosa); assay: Test B flooded paddy test, ducksalad; settings: Heteranthera limosa; 250 g ai/ha, Flood; visually evaluated after 10 to 14 days; read-out: Plant response rating, Ducksalad (0 to 100 scale where 0 is no effect and 100 is complete control)
Method in brief: (§2)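 Visual ratings (0 = no effect to 100 = complete control) were made versus controls 10 to 14 days after treatment. Compounds were added to the floodwater of pots flooded 3 cm above the soil surface when plants reached the 2-leaf stage.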

[4] = system: ragweed (common ragweed, Ambrosia artemisiifolia); assay: Test A postemergence, ragweed; settings: Ambrosia artemisiifolia, post-emergence, 240 h, 10 days, read-out: Plant response rating, Ragweed; for pest or weed control at 31 g/ha: 31 g ai/ha, postemergence, 0 to 100 scale (0 no effect, 100 complete control); for pest or weed control at 125 g/ha: Postemergence, 125 g ai/ha, 0 to 100 scale
Method in brief: as §1

[5] = system: ryegrass, Italian (Italian ryegrass, Lolium multiflorum); assay: Test A preemergence, ryegrass, Italian; settings: Lolium multiflorum, pre-emergence, 240 h, 0 to 100 scale, 10 days, read-out: Plant response rating, Ryegrass, Italian; for pest or weed control at 31 g/ha: 31 g ai/ha; for pest or weed control at 125 g/ha: 125 g ai/ha
Method in brief: as §1

corn (Zea mays) = assay: Test A postemergence, corn; settings: Zea mays, post-emergence, 240 h, Postemergence, 0 to 100 scale, 10 days; for Corn plant response rating (crop injury, 0 = no effect, 100 = complete kill) at 31 g/ha: 31 g ai/ha; for Corn plant response rating (crop injury, 0 = no effect, 100 = complete kill) at 125 g/ha: 125 g ai/ha
Method in brief: as §1

[6] = system: foxtail, giant (giant foxtail, Setaria faberi); assay: Test A preemergence, foxtail, giant; settings: Setaria faberi, pre-emergence, 240 h, 0 to 100 scale, 10 days, read-out: Plant response rating, Foxtail, Giant; for pest or weed control at 31 g/ha: 31 g ai/ha; for pest or weed control at 125 g/ha: 125 g ai/ha
Method in brief: as §1

[7] = system: barnyardgrass (Echinochloa crus-galli); assay: Test A preemergence, barnyardgrass; settings: 10 days
Method in brief: as §1

[8] = system: sedge, umbrella (small-flower umbrella sedge, Cyperus difformis); assay: Test B flooded paddy test, sedge, umbrella; settings: Cyperus difformis; 250 g ai/ha, Flood; visually evaluated after 10 to 14 days; read-out: Plant response rating, Sedge, Umbrella (0 to 100 scale where 0 is no effect and 100 is complete control)
Method in brief: as §2

[9] = system: redroot pigweed (Amaranthus retroflexus); assay: Test A postemergence, redroot pigweed; settings: 10 days
Method in brief: as §1

[10] = system: ryegrass, Italian (Italian ryegrass, Lolium multiflorum); assay: Test A postemergence, ryegrass, Italian; settings: Lolium multiflorum, post-emergence, 240 h, 10 days, read-out: Plant response rating, Ryegrass, Italian; for pest or weed control at 31 g/ha: 31 g ai/ha, postemergence, 0 to 100 scale (0 no effect, 100 complete control); for pest or weed control at 125 g/ha: Postemergence, 125 g ai/ha, 0 to 100 scale
Method in brief: as §1

[11] = system: blackgrass (Alopecurus myosuroides); assay: Test A postemergence, blackgrass; settings: Alopecurus myosuroides, post-emergence, 240 h, Postemergence, 0 to 100 scale, 10 days, read-out: Plant response rating, Blackgrass; for pest or weed control at 31 g/ha: 31 g ai/ha; for pest or weed control at 125 g/ha: 125 g ai/ha
Method in brief: as §1

[12] = system: barnyardgrass (Echinochloa crus-galli); assay: Test A postemergence, barnyardgrass; settings: Postemergence, 0 to 100 scale, 10 days
Method in brief: as §1

[13] = system: redroot pigweed (Amaranthus retroflexus); assay: Test A preemergence, redroot pigweed; settings: 0 to 100 scale, 10 days
Method in brief: as §1

[14] = system: galium (catchweed bedstraw, Galium aparine); assay: Test A postemergence, galium; settings: Galium, post-emergence, 240 h, 10 days, read-out: Plant response rating, Galium; for pest or weed control at 31 g/ha: 31 g ai/ha, postemergence, 0 to 100 scale (0 no effect, 100 complete control); for pest or weed control at 125 g/ha: Postemergence, 125 g ai/ha, 0 to 100 scale
Method in brief: as §1

[15] = 125 g ai/ha, 0 to 100 scale (0 no effect, 100 complete control)
[16] = 31 g ai/ha, postemergence, 0 to 100 scale (0 no effect, 100 complete control)
[17] = Postemergence, 125 g ai/ha, 0 to 100 scale

| Compound | pest or weed control at 31 g/ha [1] [%] | pest or weed control at 125 g/ha [1] [%] | pest or weed control at 31 g/ha (kochia (Bassia scoparia)) [%] | pest or weed control at 125 g/ha (kochia (Bassia scoparia)) [%] | pest or weed control at 31 g/ha [2] [%] | pest or weed control at 125 g/ha [2] [%] | pest or weed control at 250 g/ha [3] [%] | pest or weed control at 31 g/ha [4] [%] | pest or weed control at 125 g/ha [4] [%] | pest or weed control at 31 g/ha [5] [%] | pest or weed control at 125 g/ha [5] [%] | Corn plant response rating (crop injury, 0 = no effect, 100 = complete kill) at 31 g/ha (corn (Zea mays)) [%] | Corn plant response rating (crop injury, 0 = no effect, 100 = complete kill) at 125 g/ha (corn (Zea mays)) [%] | pest or weed control at 31 g/ha [6] [%] | pest or weed control at 125 g/ha [6] [%] | Plant response rating, Barnyardgrass ([7]; 31 g ai/ha, 0 to 100 scale) | Plant response rating, Barnyardgrass [7, 15] | pest or weed control at 250 g/ha [8] [%] | Plant response rating, Pigweed, Redroot [9, 16] | Plant response rating, Pigweed, Redroot [9, 17] | further results |
| --- | --- | --- | --- | --- | --- | --- | --- | --- | --- | --- | --- | --- | --- | --- | --- | --- | --- | --- | --- | --- | --- |
| CC(=O)OCOc1c(C)nn(C)c(=O)c1-c1c(Br)sc2ccc(F)cc12 [Compound 2, 5-[(acetyloxy)methoxy]-4-(2-bromo-5-fluorobenzo[b]thien-3-yl)-2,6-dimethyl-3(2H)-pyridazinone] | 50 | 90 | 20 | 50 | 70 | 90 | 20 | 70 | 100 | 70 | 100 | 0 | 30 | 30 | 60 | 0 | 0 | 45 | 80 | 90 | pest or weed control at 31 g/ha [10]: 80%; pest or weed control at 125 g/ha [10]: 100%; pest or weed control at 31 g/ha [11]: 30%; pest or weed control at 125 g/ha [11]: 30%; Plant response rating, Barnyardgrass ([12]; 31 g ai/ha): 50; Plant response rating, Barnyardgrass ([12]; 125 g ai/ha): 60; Plant response rating, Pigweed, Redroot ([13]; 31 g ai/ha): 90; Plant response rating, Pigweed, Redroot ([13]; 125 g ai/ha): 100; pest or weed control at 31 g/ha [14]: 90%; pest or weed control at 125 g/ha [14]: 100% |
| CC(=O)OCOc1c(Cl)nn(C)c(=O)c1-c1c(C)ccc2ccc(C)cc12 [Compound 3, 5-[(Acetyloxy)methoxy]-6-chloro-4-(2,7-dimethyl-1-naphthalenyl)-2-methyl-3(2H)-pyridazinone] | 80 | 90 | 10 | 90 | 90 | 90 | 95 | 90 | 100 | 20 | 100 | 0 | 20 | 10 | 100 | 60 | 100 | 98 | 100 | 100 | pest or weed control at 31 g/ha [10]: 80%; pest or weed control at 125 g/ha [10]: 100%; pest or weed control at 31 g/ha [11]: 10%; pest or weed control at 125 g/ha [11]: 30%; Plant response rating, Barnyardgrass ([12]; 31 g ai/ha): 60; Plant response rating, Barnyardgrass ([12]; 125 g ai/ha): 90; Plant response rating, Pigweed, Redroot ([13]; 31 g ai/ha): 100; Plant response rating, Pigweed, Redroot ([13]; 125 g ai/ha): 100; pest or weed control at 31 g/ha [14]: 100%; pest or weed control at 125 g/ha [14]: 100% |

Reference: patent US12692238B2, “Substituted pyridazinone herbicides” (FMC CORPORATION, priority 2020, dated 2026)
